# Source: US20250084080A1, “CRYSTALLINE AND SALT FORMS OF AN NLRP3 INHIBITOR” (BioAge Labs, Inc., priority 2023, published 2025)
# Key:
# Type in all cases: physicochemical
# [1] = Solubility at 37° C. in buffers and biorelevant media, XRPD of residual solid; conditions: for solubility at 2 h / solubility at 24 h: thermodynamic from solid
# Experimental: Solubility of BAL-0748 free form Pattern B was investigated in pH 1.2 HCl buffer, pH 4.5 50 mM acetate buffer, pH 6.8 50 mM phosphate buffer, water, pH 1.6 FaSSGF, pH 6.5 FaSSIF-v1, pH 5.0 FeSSIF-v1 and 2% HPMC+1% Pluronic F68 in pH 4.5 50 mM acetate buffer at 37° C. for 2 h and 24 h. Residual solids after the solubility test were analyzed by XRPD.
# Solubility of the free form Pattern A, the HCl salt Pattern A, the phosphate salt Pattern A, and the sodium salt Pattern A was measured in pH 1.2 HCl buffer, pH 4.5 acetate buffer (50 mM), pH 6.8 phosphate buffer (50 mM), water, pH 1.6 FaSSGF, pH 6.5 FaSSIF-v1, pH 5.0 FeSSIF-v1, and 2% HPMC+1% Pluronic F68 in pH 4.5 acetate buffer (50 mM) at 37° C. for 2 hours and 24 hours.
# 10.4 mg of the free form Pattern A, 10.0 mg of the free form Pattern B, 10.8 mg of the HCl salt Pattern A, 12.2 mg of the phosphate salt Pattern A, or 10.5 mg of the sodium salt Pattern A was weighed into a 20 mL glass vial, respectively. 5 mL of solubility medium was added. The salt amount used was equivalent to 10 mg anhydrous free form. Obtained suspensions were stirred at 37° C. at 400 rpm and sampled at 2 hours and at 24 hours. The samples were centrifuged at 37° C. at 14,000 rpm for 5 min. Supernatants were analyzed by HPLC and PH meter for solubility and pH value, respectively. Residual solids (wet cakes) from the 24 hours samples were also characterized by XRPD to determine physical form.
# [2] = Bulk stability (solid state, 1 week; HPLC, XRPD, IC, color); design: key to CL (color): A: no change of color; B: slight discoloration; C: medium discoloration; D: strong discoloration; conditions: for Bulk (HPLC) Purity / Bulk (XRPD) / CL (color): Solid state
# Experimental: Bulk stability of free form Pattern B was evaluated at 25° C./92.5% RH in an open container, at 40° C./75% RH in an open container and at 60° C. in a tight container over 1 week.
# [3] = Hygroscopicity by dynamic vapor sorption (DVS) at 25° C.; conditions: for Desorp. (%) / Sorp. (%): DVS 25° C.
# Experimental: Dynamic vapor sorption (DVS) was performed on an Intrinsic, Advantage or Adventure with an oven temperature of 25° C. using water as a solvent. The sample mass was about 5-10 mg using the following method: • Cycle: 40-0-95-0-40% RH • Stage Step: 10% • Equilibrium: 0.002 dm/dt (%/min) • Minimum dm/dt stability duration: 60 min • Maximum dm/dt stage time: 360 min. Hygroscopicity of free form Pattern B was evaluated by dynamic vapor sorption (DVS) test at 25° C. […] It absorbed about 0.8% water at 80% RH at 25° C.
# [4] = aqueous buffer, pH 4.5 acetate buffer (50 mM), 37° C.
# [5] = aqueous buffer, pH 6.8 phosphate buffer (50 mM), 37° C.
# [6] = aqueous with cosolvent or surfactant or cyclodextrin, 2% HPMC + 1% Pluronic F68 in pH 4.5 acetate buffer (50 mM), 37° C.
# [7] = fassgf or other biorelevant, FaSSGF, pH 1.6, 37° C.
# [8] = simulated gastric fluid, pH 1.2 HCl buffer, 37° C.
# [9] = 25° C./92.5% RH open, 40° C./75% RH open, 60° C. tight container
smiles,measurement,setting,value
"CCOc1cc(C(=O)N(C)Cc2cnc(CO)c3cn[nH]c23)ccc1-c1cc(F)cc(F)c1.O=P(O)(O)O [Phosphate salt Pattern A, 2-ethoxy-3′,5′-difluoro-N-((4-(hydroxymethyl)-1H-pyrazolo[4,3-c]pyridin-7-yl)methyl)-N-methyl-[1,1′-biphenyl]-4-carboxamide phosphoric acid salt]",pH of supernatant at 24 h,"[1]; 2% HPMC + 1% Pluronic F68 in pH 4.5 acetate buffer (50 mM), 37° C.",(4.5)
same,Solubility compared with the free form Pattern A,[1]; 2% HPMC+1% Pluronic F68 in acetate buffer (pH 4.5),comparable solubility
same,pH of supernatant at 24 h,"[1]; FaSSGF, pH 1.6, 37° C.",(1.6)
same,pH of supernatant at 24 h,"[1]; FaSSIF-v1, pH 6.5, 37° C.",(6.2)
same,pH of supernatant at 24 h,"[1]; FeSSIF-v1, pH 5.0, 37° C.",(4.9)
same,pH of supernatant at 24 h,"[1]; Water, 37° C.",(2.6)
same,solubility at 2 h,[1]; [4],9.4 µg/mL
same,solubility at 24 h,[1]; [4],11.8 µg/mL
same,solubility at 2 h,[1]; [5],2.4 µg/mL
same,solubility at 24 h,[1]; [5],2.9 µg/mL
same,solubility at 2 h,[1]; [6],16.4 µg/mL
same,solubility at 24 h,[1]; [6],17.9 µg/mL
same,solubility at 2 h,[1]; [7],710 µg/mL
same,solubility at 24 h,[1]; [7],653 µg/mL
same,pH of supernatant at 24 h,"[1]; pH 1.2 HCl buffer, 37° C.",(1.2)
same,pH of supernatant at 24 h,"[1]; pH 4.5 acetate buffer (50 mM), 37° C.",(4.4)
same,pH of supernatant at 24 h,"[1]; pH 6.8 phosphate buffer (50 mM), 37° C.",(6.7)
same,Solubility compared with the free form Pattern A,[1]; pure water,obviously higher solubility
same,solubility at 2 h,[1]; [8],402 µg/mL
same,solubility at 24 h,[1]; [8],390 µg/mL
same,solubility at 2 h,"[1]; FaSSIF-v1, pH 6.5, 37° C.",8.4 µg/mL
same,solubility at 24 h,"[1]; FaSSIF-v1, pH 6.5, 37° C.",13.7 µg/mL
same,solubility at 2 h,"[1]; FeSSIF-v1, pH 5.0, 37° C.",140 µg/mL
same,solubility at 24 h,"[1]; FeSSIF-v1, pH 5.0, 37° C.",159 µg/mL
same,solubility at 2 h,"[1]; Water, 37° C.",384 µg/mL
same,solubility at 24 h,"[1]; Water, 37° C.",442 µg/mL
same,"Bulk stability, chemical and physical",[2]; [9],chemically and physically stable
same,Degradation by HPLC,[2]; [9],no obvious degradation
same,Form change by XRPD,[2]; [9],no form change
same,Bulk (HPLC) Purity,"[2]; 25° C./92.5% RH, open",98.2%
same,Bulk (XRPD),"[2]; 25° C./92.5% RH, open",No form change
same,CL (color),"[2]; 25° C./92.5% RH, open",A
same,Bulk (HPLC) Purity,"[2]; 40° C./75% RH, open",98.2%
same,Bulk (XRPD),"[2]; 40° C./75% RH, open",No form change
same,CL (color),"[2]; 40° C./75% RH, open",A
same,Bulk (HPLC) Purity,"[2]; 60° C., closed",98.2%
same,Bulk (XRPD),"[2]; 60° C., closed",No form change
same,CL (color),"[2]; 60° C., closed",A
same,Desorp. (%),"[3]; 0% RH, 1st desorption",0.03%
same,Sorp. (%),"[3]; 0% RH, 1st sorption",0.03%
same,Desorp. (%),"[3]; 0% RH, 2nd desorption",0.00%
same,Sorp. (%),"[3]; 0% RH, 2nd sorption",0.00%
same,Desorp. (%),"[3]; 10% RH, 1st desorption",0.12%
same,Sorp. (%),"[3]; 10% RH, 1st sorption",0.11%
same,Desorp. (%),"[3]; 10% RH, 2nd desorption",0.09%
same,Sorp. (%),"[3]; 10% RH, 2nd sorption",0.09%
same,Desorp. (%),"[3]; 20% RH, 1st desorption",0.16%
same,Sorp. (%),"[3]; 20% RH, 1st sorption",0.15%
same,Desorp. (%),"[3]; 20% RH, 2nd desorption",0.14%
same,Sorp. (%),"[3]; 20% RH, 2nd sorption",0.13%
same,Desorp. (%),"[3]; 30% RH, 1st desorption",0.20%
same,Sorp. (%),"[3]; 30% RH, 1st sorption",0.18%
same,Desorp. (%),"[3]; 30% RH, 2nd desorption",0.18%
same,Sorp. (%),"[3]; 30% RH, 2nd sorption",0.17%
same,Desorp. (%),"[3]; 40% RH, 1st desorption",0.24%
same,Sorp. (%),"[3]; 40% RH, 1st sorption",0.23%
same,Desorp. (%),"[3]; 40% RH, 2nd desorption",0.23%
same,Sorp. (%),"[3]; 40% RH, 2nd sorption",0.21%
same,Sorp. (%),"[3]; 50% RH, 1st sorption",0.27%
same,Desorp. (%),"[3]; 50% RH, 2nd desorption",0.29%
same,Sorp. (%),"[3]; 60% RH, 1st sorption",0.32%
same,Desorp. (%),"[3]; 60% RH, 2nd desorption",0.35%
same,Sorp. (%),"[3]; 70% RH, 1st sorption",0.37%
same,Desorp. (%),"[3]; 70% RH, 2nd desorption",0.41%
same,Sorp. (%),"[3]; 80% RH, 1st sorption",0.45%
same,Desorp. (%),"[3]; 80% RH, 2nd desorption",0.48%
same,Sorp. (%),"[3]; 90% RH, 1st sorption",0.61%
same,Desorp. (%),"[3]; 90% RH, 2nd desorption",0.63%
same,Sorp. (%),"[3]; 95% RH, 1st sorption",0.82%
same,Desorp. (%),"[3]; 95% RH, 2nd desorption",0.82%
same,XRPD after DVS test,[3]; DVS at 25° C.,No form change
same,Water absorbed at 80% RH,"[3]; DVS at 25° C., 80% RH",It absorbed 0.5%
